This assay concerns the target T1, hOX2R (Homo sapiens, UniProt O43614).
T1 construct: expressed in transfected cells; host or cells: CHO cells (G418 selection)
T1 sequence (O43614 1-444): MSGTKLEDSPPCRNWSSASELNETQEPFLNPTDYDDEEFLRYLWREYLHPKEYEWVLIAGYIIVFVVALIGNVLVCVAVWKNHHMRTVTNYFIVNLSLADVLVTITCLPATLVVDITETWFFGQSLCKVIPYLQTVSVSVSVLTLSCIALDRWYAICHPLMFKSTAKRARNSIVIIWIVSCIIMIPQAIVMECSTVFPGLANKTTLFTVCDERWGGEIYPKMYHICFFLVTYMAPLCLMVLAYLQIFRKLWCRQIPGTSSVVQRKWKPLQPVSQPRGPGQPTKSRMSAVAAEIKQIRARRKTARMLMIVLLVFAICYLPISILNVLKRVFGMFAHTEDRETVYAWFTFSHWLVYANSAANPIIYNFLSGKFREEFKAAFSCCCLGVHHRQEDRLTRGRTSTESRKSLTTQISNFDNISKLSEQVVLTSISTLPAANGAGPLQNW
Put plainly: hOX2R IPone assay (orexin receptor agonism). It counts as cell-based. Particulars: IPone readout; for hOX2R_Ipone max %act: maximal activation; for EC50: orexin receptor agonist, read-out: hOX2R_IPone EC50.

Regarding `CCN1C(=O)N[C@@H](CCC(F)(F)F)CCCCCOc2nc(cn3cc(C)nc23)-c2cc(nc3ccoc23)C1C` (single isomer, unassigned) [Example 75A], the hOX2R_Ipone max %act stood at 96.6% and the EC50 – broadly, the concentration needed to bring the measured effect to its halfway point – is 528 nM.

As for `CCN1C(=O)N[C@@H](CCC(F)(F)F)CCCCCOc2nc(cn3cc(C)nc23)-c2cc(nc3ccoc23)C1C` (single isomer, unassigned) [Example 75B], the hOX2R_Ipone max %act amounted to 101.4% and the 50% effective concentration (EC50) was 6 nM.

Turning to `CCN1C(=O)N[C@@H](CCC(F)(F)F)CCCCCOc2nc(cn3c(C)cnc23)-c2cc(nc3ccoc23)C1C` (single isomer, unassigned) [Example 76A], the hOX2R_Ipone max %act is 98.9% and the EC50 came to 204 nM.

Take `CCN1C(=O)N[C@@H](CCC(F)(F)F)CCCCCOc2nc(cn3c(C)cnc23)-c2cc(nc3ccoc23)C1C` (single isomer, unassigned) [Example 76B]: the hOX2R_Ipone max %act stood at 100.4% and the concentration for a half-maximal effect (EC50) was determined as 3.4 nM.

Regarding `CCN1C(=O)N[C@@H](CCC(F)(F)F)CCCCCOc2cc(cc3ccnn23)-c2nc(cnc2OC)C1C` (single isomer, unassigned) [Example 80A], the hOX2R_Ipone max %act is recorded as 98.9% and the half-maximal effective concentration (EC50) is 370 nM.

Regarding `CCN1C(=O)N[C@@H](CCC(F)(F)F)CCCCCOc2cc(cc3ccnn23)-c2nc(cnc2OC)C1C` (single isomer, unassigned) [Example 80B], the hOX2R_Ipone max %act was 99.8% and the concentration for a half-maximal effect (EC50) amounted to 2.9 nM.

For the compound `CCN1C(=O)N[C@@H](CCC(F)(F)F)CCCCCOc2nc(cc3ccnn23)-c2cc(ncc2OC)C1C` (single isomer, unassigned) [Example 88A], the hOX2R_Ipone max %act is 100.2% and the 50% effective concentration (EC50) amounted to 67.8 nM.

For `CCN1C(=O)N[C@@H](CCC(F)(F)F)CCCCCOc2nc(cc3ccnn23)-c2cc(ncc2OC)C1C` (single isomer, unassigned) [Example 88B], the hOX2R_Ipone max %act turned out to be 102.3% and the 50% effective concentration (EC50) came to 0.7 nM.

On to `CCN1C(=O)N[C@@H](CCC(F)(F)F)CCCCCOc2nc(cn3ccnc23)-c2cc(c(C)cn2)C1C` (single isomer, unassigned) [Example 92A], for which the hOX2R_Ipone max %act stood at 67.1% and the 50% effective concentration (EC50) was 10100 nM.

For `CCN1C(=O)N[C@@H](CCC(F)(F)F)CCCCCOc2nc(cn3ccnc23)-c2cc(c(C)cn2)C1C` (single isomer, unassigned) [Example 92B], the hOX2R_Ipone max %act came to 99.1% and the concentration giving a half-maximal response (EC50) stood at 24.2 nM.

Consider `CCN1C(=O)N[C@@H](CCC(F)(F)F)CCCCCOc2nc(cn3ccnc23)C2=NC=C(S2)C1C` (single isomer, unassigned) [Example 94A], for which the hOX2R_Ipone max %act is given as 97.9% and the EC50 worked out at 167 nM.

Turning to `CCN1C(=O)N[C@@H](CCC(F)(F)F)CCCCCOc2nc(cn3ccnc23)C2=NC=C(S2)C1C` (single isomer, unassigned) [Example 94B], the hOX2R_Ipone max %act is given as 100.3% and the 50% effective concentration (EC50) is 54.4 nM.

`CCN1C(=O)N[C@@H](CCC(F)(F)F)CCCCCOc2cc(cn3ccnc23)-c2cc(ncn2)C1C` (single isomer, unassigned) [Example 96A]: the hOX2R_Ipone max %act worked out at 100.3% and the EC50 is 11.9 nM.

For the compound `CCN1C(=O)N[C@@H](CCC(F)(F)F)CCCCCOc2cc(cn3ccnc23)-c2cc(ncn2)C1C` (single isomer, unassigned) [Example 96B], the hOX2R_Ipone max %act stood at 100.5% and the concentration for a half-maximal effect (EC50) worked out at 2.9 nM.

For the compound `CCN1C(=O)N[C@@H](CCC(F)(F)F)CCCCCOc2nc(cn3ccnc23)C2=NC=C(O2)C1C` (single isomer, unassigned) [Example 104A], the hOX2R_Ipone max %act is given as 60.9% and the EC50 was 4910 nM.

On to `CCN1C(=O)N[C@@H](CCC(F)(F)F)CCCCCOc2nc(cn3ccnc23)C2=NC=C(O2)C1C` (single isomer, unassigned) [Example 104B], for which the hOX2R_Ipone max %act was found to be 101.1% and the EC50 was found to be 64.1 nM.

Take `CCN1C(=O)N[C@@H](CCC(F)(F)F)CCCCCOc2nc(cn3ccnc23)-c2nc(co2)C1C` (single isomer, unassigned) [Example 105A]: the hOX2R_Ipone max %act stood at 73.0% and the EC50 was determined as 1360 nM.

Consider `CCN1C(=O)N[C@@H](CCC(F)(F)F)CCCCCOc2nc(cn3ccnc23)-c2nc(co2)C1C` (single isomer, unassigned) [Example 105B], for which the hOX2R_Ipone max %act stood at 100% and the EC50 came out at 61.6 nM.

Take `CCN1C(=O)NC(CCC(F)(F)F)CCC(F)(F)CCOc2nc(cn3ccnc23)-c2cc(ncc2OC)[C@H]1C` (single isomer, unassigned) [Example 121A]: the hOX2R_Ipone max %act is given as 100.4% and the EC50 was found to be 9.8 nM.

Take `CCN1C(=O)NC(CCC(F)(F)F)CCC(F)(F)CCOc2nc(cn3ccnc23)-c2cc(ncc2OC)[C@H]1C` (single isomer, unassigned) [Example 121B]: the hOX2R_Ipone max %act turned out to be 100.7% and the concentration for a half-maximal effect (EC50) came to 0.5 nM.

Take `CCN1C(=O)NC(C(O)CC(F)(F)F)CCCCCOc2nc(cn3ncnc23)-c2cc(ncc2OC)C1C` (single isomer, unassigned) [Example 133]: the hOX2R_Ipone max %act stood at 102.1% and the EC50 came to 4.75 nM.

In the case of `CCN1C(=O)N[C@@H](CCC(F)(F)F)CCC(O)CCOc2nc(cn3ccnc23)-c2cc(cnc2C)[C@H]1C` (single isomer, unassigned) [Example 137], the hOX2R_Ipone max %act was 100.7% and the half-maximal effective concentration (EC50) stood at 4.66 nM.

As to `CCN1C(=O)N[C@@H](CCC(F)(F)F)COCCCOc2nc(cn3ncnc23)-c2ccnc(c2F)[C@H]1C` (single isomer, unassigned) [Example 175], the hOX2R_Ipone max %act was 93.8% and the concentration giving a half-maximal response (EC50) was found to be 9.06 nM.

With `CCN1C(=O)NC2CN(CCCOc3nc(cn4ccnc34)-c3cc(ncc3OC)[C@H]1C)CC2C(F)(F)F` (single isomer, unassigned) [Example 212], the hOX2R_Ipone max %act is given as 99.48% and the concentration giving a half-maximal response (EC50) amounted to 2.79 nM.

Turning to `CCN1C(=O)NC2CN(CCCCOc3nc(cn4ccnc34)-c3cc(ncc3OC)[C@H]1C)CC2C(F)(F)F` (single isomer, unassigned) [Example 214], the hOX2R_Ipone max %act was determined as 102.9% and the concentration for a half-maximal effect (EC50) was 3.43 nM.

Turning to `CCN1C(=O)NC(C#N)CCCCCOc2nc(cn3ccnc23)-c2cc(ncc2OC)[C@H]1C` (single isomer, unassigned) [Example 224], the hOX2R_Ipone max %act is 99.26% and the EC50 amounted to 71.2 nM.

For the compound `CCN1C(=O)N[C@@H](CCC(F)(F)F)CCCCOc2nc(cn3ccnc23)-c2cc(ncc2OC)C1C` (stereo in doubt) [Example 40, (12S,16R)-13-ethyl-8-methoxy-12-methyl-16-(3,3,3-trifluoropropyl)-12,13,15,16,17,18,19,20-octahydro-14H-6,22-(azeno)-11,7-(metheno)imidazo[2,1-c][1,4,10,13,15]oxatetra-azacycloicosin-14-one], the hOX2R_Ipone max %act was found to be 101.2% and the EC50 is 1.2 nM.

`CCN1C(=O)NCCC2CCC(C2)Oc2nc(cn3ccnc23)-c2cccc(c2)C1C` [Example 1B, (10R,E)-9-ethyl-10-methyl-3-oxa-7,9-diaza-2(6,8)-imidazo[1,2-a]pyrazina-1(1,3)-benzena-4(1,3)-cyclopentanacyclodecaphan-8-one]: the hOX2R_Ipone max %act is given as 99.5% and the EC50 came out at 126 nM.

These data come from patent US12686690B2, “Macrocyclic urea orexin receptor agonists” (Merck Sharp & Dohme LLC, priority 2020, dated 2026).
